{
  "source": "patent US20020198315A1",
  "about": "“Salts of peptides with carboxy-terminated polyesters” (priority 1992, published 2002)",
  "key": {"[1]": {"assay": "Dissolution / solubility in dichloromethane", "format": "physicochemical", "procedure": "To this solution was added trifluoroacetic acid (50 μl), and the mixture was stirred vigorously.\nThe drug solution was added to the copolymer solution and was mixed thoroughly. This mixture was then added dropwise to liquid nitrogen to freeze it as small beads. The solid material was freeze dried for two days using an Edwards high vacuum freeze drier, and the dried material was further dried at 50-55° C. in a vacuum oven for 24 hours.\nThe peptide known as Substance P, in the form of its acetate salt (ex Sigma, 2 mg) was added to dichloromethane (3 ml) and thoroughly agitated.\nLys^8-vasopressin acetate salt (2 mg, ex Sigma) was added to dichloromethane (3 ml) and agitated.\n(i) Dichloromethane (4 ml) was added to a freeze-dried preparation of ZD6003 (39.72 mg).\nA lactide/glycolide copolymer (75/25, 364.1 mg, Mw=16,800 by size exclusion chromatography, polydispersity=2.2, ex Boehringer Ingelheim) was added."}, "[2]": {"conditions": "cited from earlier work"}},
  "data": [
    {"compound": "Substance P", "values": [
      {"measurement": "behaviour in dichloromethane (dissolves or not), in words", "setting": "[1]", "value": "showed no indication of dissolving"}
    ]},
    {"compound": "CC(C)C[C@H](NC(=O)[C@@H](COC(C)(C)C)NC(=O)[C@H](Cc1ccc(O)cc1)NC(=O)[C@H](CO)NC(=O)[C@H](Cc1c[nH]c2ccccc12)NC(=O)[C@H](Cc1cnc[nH]1)NC(=O)[C@@H]1CCC(=O)N1)C(=O)N[C@@H](CCCNC(=N)N)C(=O)N1CCC[C@H]1C(=O)NNC(N)=O", "note": "[Goserelin acetate]", "values": [
      {"measurement": "goserelin in benzyl benzoate supernatant, in words", "setting": "40° C., stirred, aliquots after 2 and 9 Days, limit of detection 0.2 μg/ml", "value": "No goserelin was detectable in either sample"},
      {"measurement": "equilibrium solubility of goserelin in benzyl benzoate (estimated)", "setting": "at 40° C.", "value": "less than 0.2 μg/mg"},
      {"measurement": "solubility in benzyl benzoate, in words", "setting": "lipophilic solvents such as benzyl benzoate", "value": "not soluble"}
    ]},
    {"compound": "CC(C)C[C@H](NC(=O)[C@@H](COC(C)(C)C)NC(=O)[C@H](Cc1ccc(O)cc1)NC(=O)[C@H](CO)NC(=O)[C@H](Cc1c[nH]c2ccccc12)NC(=O)[C@H](Cc1cnc[nH]1)NC(=O)[C@@H]1CCC(=O)N1)C(=O)N[C@@H](CCCNC(=N)N)C(=O)N1CCC[C@H]1C(=O)NNC(N)=O", "note": "[goserelin, [D-Ser(Bu^t)^6, Azgly^10]-LHRH]", "values": [
      {"measurement": "metabolic half-life", "setting": "[2]", "value": "4 to 6", "unit": "h"}
    ]},
    {"compound": "[Het^−1, Arg^11, Ser^17,27,60,65] human G-CSF (granulocyte-colony stimulating factor) modified with polyethylene glycol 5000 [ZD6003]", "values": [
      {"measurement": "behaviour in dichloromethane (dissolves or not), in words", "setting": "[1]", "value": "opaque dispersion of drug in the solvent"}
    ]},
    {"compound": "Lys^8-vasopressin acetate salt", "values": [
      {"measurement": "behaviour in dichloromethane (dissolves or not), in words", "setting": "[1]", "value": "showed no indication of dissolving"}
    ]}
  ]
}
